Values quoted from earlier work in patent publication US6849617B2, “Tissue factor antagonists and methods of use thereof” (Sunol Molecular Corporation, priority 1999, dated 2005).

Molecular target: tissue factor (TF) (Homo sapiens, UniProt P13726)
Settings: as disclosed in U.S. application Ser. No. 09/406269

Sequence of tissue factor (TF) (P13726 33-295): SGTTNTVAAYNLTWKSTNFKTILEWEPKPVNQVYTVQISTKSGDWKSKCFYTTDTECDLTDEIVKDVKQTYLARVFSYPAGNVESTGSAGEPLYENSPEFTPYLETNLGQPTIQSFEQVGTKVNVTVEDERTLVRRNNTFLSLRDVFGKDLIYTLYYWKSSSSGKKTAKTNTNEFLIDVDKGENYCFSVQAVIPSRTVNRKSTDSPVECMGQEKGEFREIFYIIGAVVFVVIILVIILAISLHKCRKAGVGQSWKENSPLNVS

TF antagonist activity: effective TF antagonist
Compound: NCCCC(O)(P(=O)(O)O)P(=O)(O)O [alendronic acid]
